Measurements from patent US20160264593A1 (priority 2013, published 2016).
Where “and” joins values, the source holds several entries; their conditions need not be identical. Identical values can stand only once.

Experiment: Pharmacokinetic study of 151 (and 100) in SD rats, iv and oral; plasma
Settings: for AUC0-t of 151 / AUC0-∞ of 151 / CL of 151 / MRT of 151 / T1/2 of 151 / Vss of 151 / Cmax of 151: plasma
Method: A pharmacokinetic study of 151 was conducted in SD rats. The study consisted of two dose levels at 1.0 (iv) and 10 (oral) mg/kg. The blood samples were collected at predetermined times from rats and centrifuged to separate plasma. An LC/MS/MS method was developed to determine the test article in plasma samples. The pharmacokinetic parameters of 151 following iv and oral administration to SD rats were calculated. The absolute bioavailability was evaluated.
The final concentration of the test article was 0.2 mg/mL for iv administration and 1.0 mg/mL for oral administration. The test article solutions were administered using the most recent body weight for each animal.
Blood (approximately 0.3 mL) were collected via orbital plexus into tubes containing sodium heparin at 0.25, 0.5, 1, 2, 3, 5, 7, 9, and 24 hours after oral administration; at 5 min, 15 min, 0.5, 1, 2, 3, 5, 7, 9 and 24 hours after iv administration. Samples were centrifuged for 5 min, at 4° C. with the centrifuge set at 11,000 rpm to separate plasma. The obtained plasma samples were stored frozen at a temperature of about −70° C. until analysis.
Frozen plasma samples were thawed at room temperature and vortexed thoroughly. With a pipette, an aliquot (30 μL) of plasma was transferred into a 1.5-mL conical polypropylene tube. To each sample, 160 μL of acetonitrile were added. The samples were then vigorously vortex-mixed for 1 min. After centrifugation at 11000 rpm for 5 min, a 15 μL aliquot of the supernatant was injected into the LC-MS/MS system for analysis.
Calibration standards were prepared by spiking 30 μL of the 151 standard solutions into 30 μL of heparinized blank rat plasma. The nominal standard concentrations in the standard curve were 1.00, 3.00, 10.0, 30.0, 100, 300, 1000 and 3000 ng/mL.
The analysis was performed using an LC-MS/MS system consisting of the following components—HPLC system: Agilent 1200 series instrument consisting of G1312B vacuum degasser, G1322A binary pump, G1316B column oven and G1367D autosampler (Agilent, USA); MS/MS system: Agilent 6460 triple quadrupole mass spectrometer, equipped with an APCI Interface (Agilent, USA); Data system: MassHunter Software (Agilent, USA).
Chromatographic separation was carried out at room temperature—Analytical column: C8 column (4.6 mm×150 mm I.D., 5 μm, Agilent, USA); Mobile phase: Acetonitrile:10 mM ammonium acetate (75:25, v/v); Flow rate: 0.80 mL/min; Injection volume: 15 μL.
The mass spectrometer was operated in the positive mode. Ionization was performed applying the following parameters: gas temperature, 325° C.; vaporizer temperature, 350° C.; gas flow, 4 L/min; nebulizer, 20 psi; capillary voltage, 4500 V; corona current, 4 μA. 151 was detected using MRM of the transitions m/z 283→m/z 123 and m/z 283→m/z 251, simultaneously. The optimized collision energies of 25 eV and 10 eV were used for m/z 123 and m/z 251, respectively.
Quantification was achieved by the external standard method. Concentrations of the test article were calculated using a weighted least-squares linear regression (W=1/x^2).
The pharmacokinetic parameters were evaluated using WinNonlin version 5.3 (Pharsight Corp., Mountain View, Calif., USA), assuming a non-compartmental model for drug absorption and distribution. • AUC0-t is the area under the plasma concentration-time curve from time zero to last sampling time, calculated by the linear trapezoidal rule. • AUC0-∞ is the area under the plasma concentration-time curve from time zero extrapolating to infinity. • T1/2 is the elimination half-life associated with the terminal (log-linear) elimination phase, which is estimated via linear regression of time vs. log concentrations. • CL is the total body clearance. • Vss is the volume of distribution at steady-state.

[1] = 151 IV 1.0 mg/kg, SD rats, individual, 1 mg/kg
[2] = 151 IV 1.0 mg/kg, SD rats, mean
[3] = 151 PO 10 mg/kg, SD rats, individual, 10 mg/kg

COC(=O)C1C2CCC(O2)C1C(=O)N1CCN(C)CC1 (centres unmarked) [Compound 151]
151 plasma concentration (151 IV 1.0 mg/kg, SD rats, 0.083 h, individual, 1 mg/kg): 1677 ng/mL and 1301 ng/mL | 151 plasma concentration (151 IV 1.0 mg/kg, SD rats, 0.083 h, mean): 1489 ng/mL | 151 plasma concentration (151 IV 1.0 mg/kg, SD rats, 0.250 h, individual, 1 mg/kg): 1160 ng/mL and 949 ng/mL | 151 plasma concentration (151 IV 1.0 mg/kg, SD rats, 0.250 h, mean): 1055 ng/mL | 151 plasma concentration (151 IV 1.0 mg/kg, SD rats, 0.50 h, individual, 1 mg/kg): 760 ng/mL and 807 ng/mL | 151 plasma concentration (151 IV 1.0 mg/kg, SD rats, 0.50 h, mean): 683 ng/mL | 151 plasma concentration (151 IV 1.0 mg/kg, SD rats, 1.0 h, individual, 1 mg/kg): 381 ng/mL and 314 ng/mL | 151 plasma concentration (151 IV 1.0 mg/kg, SD rats, 1.0 h, mean): 348 ng/mL | 151 plasma concentration (151 IV 1.0 mg/kg, SD rats, 2.0 h, individual, 1 mg/kg): 95.8 ng/mL and 103 ng/mL | 151 plasma concentration (151 IV 1.0 mg/kg, SD rats, 2.0 h, mean): 99.6 ng/mL | 151 plasma concentration (151 IV 1.0 mg/kg, SD rats, 3.0 h, individual, 1 mg/kg): 39.6 ng/mL and 28.1 ng/mL | 151 plasma concentration (151 IV 1.0 mg/kg, SD rats, 3.0 h, mean): 33.8 ng/mL | 151 plasma concentration (151 IV 1.0 mg/kg, SD rats, 5.0 h, individual, 1 mg/kg): 9.75 ng/mL and 3.63 ng/mL | 151 plasma concentration (151 IV 1.0 mg/kg, SD rats, 5.0 h, mean): 6.69 ng/mL | 151 plasma concentration (151 IV 1.0 mg/kg, SD rats, 7.0 h, individual, 1 mg/kg): 12.2 ng/mL and 1.83 ng/mL | 151 plasma concentration (151 IV 1.0 mg/kg, SD rats, 7.0 h, mean): 7.02 ng/mL | 151 plasma concentration (151 IV 1.0 mg/kg, SD rats, 9.0 h, individual): 2.01 ng/mL | 151 plasma concentration (151 IV 1.0 mg/kg, SD rats, 9.0 h, individual, 1 mg/kg): BLQ | 151 plasma concentration (151 IV 1.0 mg/kg, SD rats, 9.0 h, mean): 1.00 ng/mL | 151 plasma concentration (151 IV 1.0 mg/kg, SD rats, 24 h, individual): BLQ | conversion of 151 to 100 in plasma (statement) (151 PO 10 mg/kg and iv 1.0 mg/kg): converted to LB100 | 151 plasma concentration (151 PO 10 mg/kg, SD rats, 0.25 h, individual, 10 mg/kg): 2231 ng/mL and 2029 ng/mL and 2731 ng/mL | 151 plasma concentration (151 PO 10 mg/kg, SD rats, 0.25 h, mean): 2330 ng/mL | 151 plasma concentration (151 PO 10 mg/kg, SD rats, 0.50 h, individual, 10 mg/kg): 2451 ng/mL and 3934 ng/mL and 3343 ng/mL | 151 plasma concentration (151 PO 10 mg/kg, SD rats, 0.50 h, mean): 3243 ng/mL | 151 plasma concentration (151 PO 10 mg/kg, SD rats, 1.0 h, individual, 10 mg/kg): 2204 ng/mL and 2581 ng/mL and 2538 ng/mL | 151 plasma concentration (151 PO 10 mg/kg, SD rats, 1.0 h, mean): 2441 ng/mL | 151 plasma concentration (151 PO 10 mg/kg, SD rats, 2.0 h, individual, 10 mg/kg): 1100 ng/mL and 1237 ng/mL and 1582 ng/mL | 151 plasma concentration (151 PO 10 mg/kg, SD rats, 2.0 h, mean): 1306 ng/mL | 151 plasma concentration (151 PO 10 mg/kg, SD rats, 3.0 h, individual, 10 mg/kg): 521 ng/mL and 660 ng/mL and 794 ng/mL | 151 plasma concentration (151 PO 10 mg/kg, SD rats, 3.0 h, mean): 658 ng/mL | 151 plasma concentration (151 PO 10 mg/kg, SD rats, 5.0 h, individual, 10 mg/kg): 125 ng/mL and 99.4 ng/mL and 192 ng/mL | 151 plasma concentration (151 PO 10 mg/kg, SD rats, 5.0 h, mean): 139 ng/mL | 151 plasma concentration (151 PO 10 mg/kg, SD rats, 7.0 h, individual, 10 mg/kg): 42.6 ng/mL and 20.7 ng/mL and 68.0 ng/mL | 151 plasma concentration (151 PO 10 mg/kg, SD rats, 7.0 h, mean): 43.8 ng/mL | 151 plasma concentration (151 PO 10 mg/kg, SD rats, 9.0 h, individual, 10 mg/kg): 52.1 ng/mL and 38.2 ng/mL and 66.1 ng/mL | 151 plasma concentration (151 PO 10 mg/kg, SD rats, 9.0 h, mean): 52.1 ng/mL | 151 plasma concentration (151 PO 10 mg/kg, SD rats, 24 h, individual): BLQ | F of 151 (151 PO 10 mg/kg, SD rats, mean): 54.6% | conversion to endothal in the plasma (statement) (151 administered to rats): converted to endothal | mean clearance of 151 from rat plasma (151 iv 1.0 mg/kg): 14.3 mL/min/kg | volume of distribution at steady state of 151 (151 iv 1.0 mg/kg): 0.736 L/kg | elimination half-life of 151 (151 iv 1.0 mg/kg (n=2)): 0.89 h | mean half-life of 151 (151 oral 10 mg/kg (n=3)): 1.26 h | time of peak plasma concentration of 151 (151 oral 10 mg/kg (n=3)): 0.5 h | absolute bioavailability (F) of 151 (oral 10 mg/kg, based on AUC0-∞): 54.6% | AUC0-t of 151 [1]: 1293 ng·h/mL and 1045 ng·h/mL | AUC0-∞ of 151 [1]: 1309 ng·h/mL and 1047 ng·h/mL | CL of 151 [1]: 12.7 mL/min/kg and 15.9 mL/min/kg | MRT of 151 [1]: 0.91 h and 0.81 h | T1/2 of 151 [1]: 0.91 h and 0.87 h | Vss of 151 [1]: 0.696 L/kg and 0.775 L/kg | AUC0-t of 151 [2]: 1169 ng·h/mL | AUC0-∞ of 151 [2]: 1178 ng·h/mL | CL of 151 [2]: 14.3 mL/min/kg | MRT of 151 [2]: 0.86 h | T1/2 of 151 [2]: 0.89 h | Vss of 151 [2]: 0.736 L/kg | AUC0-t of 151 [3]: 5399 ng·h/mL and 6423 ng·h/mL and 7199 ng·h/mL | AUC0-∞ of 151 [3]: 5499 ng·h/mL and 6484 ng·h/mL and 7328 ng·h/mL | Cmax of 151 [3]: 2451 ng/mL and 3934 ng/mL and 3343 ng/mL | MRT of 151 [3]: 1.86 h and 1.62 h and 1.95 h | T1/2 of 151 [3]: 1.33 h and 1.10 h and 1.35 h | AUC0-t of 151 (151 PO 10 mg/kg, SD rats, mean): 6340 ng·h/mL | AUC0-∞ of 151 (151 PO 10 mg/kg, SD rats, mean): 6437 ng·h/mL | Cmax of 151 (151 PO 10 mg/kg, SD rats, mean): 3243 ng/mL | MRT of 151 (151 PO 10 mg/kg, SD rats, mean): 1.81 h | T1/2 of 151 (151 PO 10 mg/kg, SD rats, mean): 1.26 h
